Results: patent US7205314B2, “Compounds for the treatment of dementia related diseases” (AstraZeneca AB, priority 2001, dated 2007)

melting point: 214 to 219 °C
Structure (SMILES): COCCOc1ccc2c(C3C(=O)Nc4ccc(C#N)cc43)nccc2c1 (stereo not shown) [Example 3, 3-[6-(2-Methoxyethoxy)isoquinolin-1-yl]-2-oxo-2,3-dihydro-1H-indole-5-carbonitrile]
